# Source: patent US20170150719A1, “FUNGICIDAL PYRAZOLES AND THEIR MIXTURES” (E I DU PONT DE NEMOURS AND COMPANY, priority 2010, published 2017)
# Like-named read-outs stand apart in the source and are kept apart here.
# Key:
# [1] = system: Puccinia recondita f. sp. tritici; test: Test H: wheat leaf rust, preventive spray on wheat seedlings, visual disease rating; details: read-out: Test H rating (disease control), wheat leaf rust, sprayed the day before inoculation; 100 = 100% disease control, 0 = no disease control
# [2] = system: Puccinia recondita f sp. tritici; test: Test L (L1-L5): wheat leaf rust, Compound 81 alone and in mixtures, observed and Colby expected control; assay type: in vivo; details: for Test L4 Obsd, disease control rating / Test L5 Obsd, disease control rating: wheat leaf rust
# Botrytis cinerea = test: Test A: tomato Botrytis, preventive spray on tomato seedlings, visual disease rating; details: Botrytis cinerea, in Solanum lycopersicum, read-out: Test A rating (disease control), tomato Botrytis; 100 = 100% disease control, 0 = no disease control relative to the controls
# Septoria nodorum = test: Test E: Septoria glume blotch, preventive spray on wheat seedlings, visual disease rating; details: Parastagonospora nodorum, in Triticum aestivum, read-out: Test E rating (disease control), Septoria glume blotch; 100 = 100% disease control, 0 = no disease control relative to the controls
# [3] = system: Puccinia recondita f. sp. tritici; test: Test G: wheat leaf rust, spray after inoculation (curative) on wheat seedlings, visual disease rating; assay type: in vivo; details: sprayed after inoculation, 100 = 100% disease control, 0 = no disease control
# Text: (§1) A hyphen (-) indicates no test results.
# Septoria tritici [4] = test: Test F: wheat leaf blotch, preventive spray on wheat seedlings, visual disease rating; assay type: in vivo; details: Zymoseptoria tritici, 100 = 100% disease control, 0 = no disease control relative to the controls
# Text: as §1
# [5] = system: Blumeria graminis f. sp. tritici; test: Test K (K1-K5): wheat powdery mildew, Compound 81 alone and in mixtures, observed and Colby expected control; assay type: in vivo; details: for Test K4 Obsd, disease control rating / Test K5 Obsd, disease control rating: wheat powdery mildew
# Septoria tritici [6] = test: Tests N1 and N2: growth inhibition of Septoria tritici on solid medium in 96-well plates, absorbance at 600 nm, observed and Colby expected; assay type: cell-based; details: Zymoseptoria tritici; for inhibition at 0.00032 µM: Compound 81 alone 0.00032 μM; for inhibition at 0.0016 µM: Compound 81 alone 0.0016 μM; for inhibition at 0.008 µM: Compound 81 alone 0.008 μM; for inhibition at 0.04 µM: Compound 81 alone 0.04 μM; for inhibition at 0.2 µM: Compound 81 alone 0.2 μM
# Text: Tests N1 and N2 involved evaluation of mixtures of Compound 81 with 2-[(3-bromo-8-methyl-6-quinolinyl)oxy]-N-(1,1-dimethyl-2-propyn-1-yl)-2-(methylthio)acetamide (Compound A1) and 2-[(3-bromo-6-quinolinyl)oxy]-N-(1,1-dimethylethyl)butanamide (Compound A2), respectively, for inhibiting the growth of Septoria tritici (the causal agent of wheat leaf blotch). The general protocol for preparing test compositions was as follows. Compound 81 (Tests N1 and N2), Compound A1 (Test N1) and Compound A2 (Test N2) were obtained as unformulated, technical-grade materials. Unformulated test compounds were first dissolved in DMSO at the appropriate concentration to provide the desired concentration (in μM) after mixing with the fungal growth medium in the wells of 96-well plates containing 200 μL fungal growth medium per well. The ranges of compound concentrations were chosen to span a range of inhibitory activity from 0 to near 100% to identify any synergistic action when Septoria tritici was treated with compounds added in combination. The DMSO solutions of the test compounds were added to the wells prior to addition of the fungal growth medium.
# The fungal growth solid medium was prepared by forming an aqueous mixture containing dipotassium hydrogen phosphate (3.0 g/L), potassium dihydrogen phosphate (4.0 g/L), sodium chloride (0.5 g/L), ammonium chloride (1.0 g/L), magnesium sulfate heptahydrate ([…]) and calcium chloride dihydrate (0.01 g/L), also containing 1 mL/L of a trace element solution (manganese sulfate hydrate (0.1 mg/mL), zinc sulfate heptahydrate (0.2 mg/mL), copper(II) sulfate pentahydrate (0.2 mg/mL), iron(II) sulfate heptahydrate (0.2 mg/mL), sodium molybdate dihydrate (0.1 mg/mL), cobalt(II) sulfate heptahydrate (0.06 mg/mL), boric acid (0.08 mg/mL)), and supplemented with 50 μL/L of a biotin stock solution (0.1 mg/mL). The pH was adjusted to 6.8 with aqueous 1 M sodium carbonate solution. The mixture was further supplemented with 1 g/L of yeast extract, and GELRITE gellan gum (Kelco) (4 g/L) was added. Sufficient water was added to bring the volume to 90% of final volume (e.g., 900 mL volume for preparation of 1 L of fungal growth medium). The mixture was autoclaved. On cooling to 60° C., 100 mL/L of aqueous dextrose solution (10 g/L), 500 μL/L of aqueous ampicillin solution (100 mg/mL) and 500 μL/L of rifampicin solution (10 mg/mL in DMSO) were added to provide the final volume of fungal growth medium, which was then dispensed while still warm using a microliter pipette to the wells of the 96-well plates. The dispensed fungal growth medium in each well was agitated using the tip of the dispensing pipette to mix it with the DMSO solution containing the test compounds.
# After the fungal growth medium in the wells had cooled to room temperature and solidified, the top surface of the growth medium in each well was inoculated with 20 μL of a suspension of fungus containing 8×10^4 cells. Following a 2 h period of drying in a sterile hood, plates were placed in a dark incubator at 25° C. for 5 d.
# Fungal growth was assessed on a plate reader set to measure absorbance of 600 nm light. The percent growth inhibition observed (Obsd.) in Tests N1 and N2, as well as the percent growth inhibition expected (Exp.) from calculation using the Colby equation, are listed in Tables L and M, respectively.
# [7] = read-out: % inhibition Obsd. (Test N1)
# [8] = read-out: % inhibition Obsd. (Test N2)
smiles,measurement,setting,value
"Cc1nn(C)c(Nc2c(F)cc(Cl)cc2F)c1-c1ccc(F)cc1Cl [Compound 81, N-(4-chloro-2,6-difluorophenyl)-4-(2-chloro-4-fluorophenyl)-1,3-dimethyl-1H-pyrazole-5-amine]",pest or weed control at 200 µg/mL,[1],100%
same,Test L1 Obsd,[2]; Compound 81 1 ppm alone,88%
same,Test L2 Obsd,[2]; Compound 81 1 ppm alone,9%
same,Test L3 Obsd,[2]; Compound 81 1 ppm alone,9%
same,Test L1 Obsd,[2]; Compound 81 2 ppm alone,68%
same,Test L2 Obsd,[2]; Compound 81 2 ppm alone,27%
same,Test L3 Obsd,[2]; Compound 81 2 ppm alone,9%
same,Test L1 Obsd,[2]; Compound 81 5 ppm alone,91%
same,Test L2 Obsd,[2]; Compound 81 5 ppm alone,74%
same,Test L3 Obsd,[2]; Compound 81 5 ppm alone,41%
same,Test L1 Obsd,[2]; Compound 81 10 ppm alone,98%
same,Test L2 Obsd,[2]; Compound 81 10 ppm alone,91%
same,Test L3 Obsd,[2]; Compound 81 10 ppm alone,88%
same,"Test L4 Obsd, disease control rating",[2]; Compound 81 1 ppm alone,0%
same,"Test L5 Obsd, disease control rating",[2]; Compound 81 1 ppm alone,18%
same,"Test L4 Obsd, disease control rating",[2]; Compound 81 2 ppm alone,27%
same,"Test L5 Obsd, disease control rating",[2]; Compound 81 2 ppm alone,27%
same,"Test L4 Obsd, disease control rating",[2]; Compound 81 5 ppm alone,68%
same,"Test L5 Obsd, disease control rating",[2]; Compound 81 5 ppm alone,55%
same,"Test L4 Obsd, disease control rating",[2]; Compound 81 10 ppm alone,88%
same,"Test L5 Obsd, disease control rating",[2]; Compound 81 10 ppm alone,82%
same,pest or weed control at 200 µg/mL,Botrytis cinerea,100%
same,pest or weed control at 200 µg/mL,Septoria nodorum,90%
same,pest or weed control at 200 µg/mL,[3],99%
same,pest or weed control at 200 µg/mL,Septoria tritici [4],100%
same,Test K1 Obsd,[5]; Compound 81 1 ppm alone,0%
same,Test K2 Obsd,[5]; Compound 81 1 ppm alone,91%
same,Test K3 Obsd,[5]; Compound 81 1 ppm alone,0%
same,Test K1 Obsd,[5]; Compound 81 2 ppm alone,87%
same,Test K2 Obsd,[5]; Compound 81 2 ppm alone,91%
same,Test K3 Obsd,[5]; Compound 81 2 ppm alone,0%
same,Test K1 Obsd,[5]; Compound 81 5 ppm alone,99%
same,Test K2 Obsd,[5]; Compound 81 5 ppm alone,91%
same,Test K3 Obsd,[5]; Compound 81 5 ppm alone,90%
same,Test K1 Obsd,[5]; Compound 81 10 ppm alone,100%
same,Test K2 Obsd,[5]; Compound 81 10 ppm alone,100%
same,Test K3 Obsd,[5]; Compound 81 10 ppm alone,99%
same,"Test K4 Obsd, disease control rating",[5]; Compound 81 1 ppm alone,0%
same,"Test K5 Obsd, disease control rating",[5]; Compound 81 1 ppm alone,0%
same,"Test K4 Obsd, disease control rating",[5]; Compound 81 2 ppm alone,0%
same,"Test K5 Obsd, disease control rating",[5]; Compound 81 2 ppm alone,0%
same,"Test K4 Obsd, disease control rating",[5]; Compound 81 5 ppm alone,0%
same,"Test K5 Obsd, disease control rating",[5]; Compound 81 5 ppm alone,0%
same,"Test K5 Obsd, disease control rating",[5]; Compound 81 10 ppm alone,100%
same,inhibition at 0.00032 µM,Septoria tritici [6]; [7],9%
same,inhibition at 0.00032 µM,Septoria tritici [6]; [8],0%
same,inhibition at 0.0016 µM,Septoria tritici [6]; [7],5%
same,inhibition at 0.0016 µM,Septoria tritici [6]; [8],0%
same,inhibition at 0.008 µM,Septoria tritici [6]; [7],10%
same,inhibition at 0.008 µM,Septoria tritici [6]; [8],29%
same,inhibition at 0.04 µM,Septoria tritici [6]; [7],93.5%
same,inhibition at 0.04 µM,Septoria tritici [6]; [8],93.5%
same,inhibition at 0.2 µM,Septoria tritici [6]; [7],98%
same,inhibition at 0.2 µM,Septoria tritici [6]; [8],96%
